This note sets out measurements from US7668586B2, “In vivo multiphoton diagnostic detection and imaging of a neurodegenerative disease” (Cornell Research Foundation, Inc., priority 2000, dated 2010).

The test system of series [1] is pial arteriole. As to the kind of experiment: Pial vessel reactivity, closed cranial window, vessel diameter measurement. Conditions: 14-month-old Tg+ (four out of five, outlier excluded); ACh 10 and 25 μM, SNP 0.5 μM superfused.
Excerpt: Anesthesia was induced with 2.5% halothane and maintained in 1.0% halothane in 67% N2O and 33% O2. Mice were intubated transorally, placed in a stereotaxic frame and ventilated artificially (SAR-830/P, CWE, Ardmore, Pa.). End-tidal CO2 was continuously monitored by a microcapnometer (Columbus Instruments, Columbus, Ohio). The femoral artery and vein were cannulated with a polyethylene catheter (PE-10, Intramedic, Becton Dickinson) for continuous arterial blood pressure and heart rate monitoring and for drug infusion. Alpha-chloralose (80 mg/kg i.v.) was injected and halothane was withdrawn gradually for deepening of anesthesia. […] Arterial blood gas and pH were analyzed before drug superfusion. […]
Pial vessels were visualized with a video microscope system comprised of an intravital microscope (Leitz, Germany), CCD video camera (model 1300, Cohu Inc, San Diego, U.S.A.), a camera controller (C2400, Hamamatsu Photonics, Hamamatsu, Japan), video monitor (Sony, Japan), and a video recorder (Panasonic, Japan). The images were continuously recorded on videotape. The diameter of a single pial arteriole (20-30 μm) was measured per experiment by a video width analyzer (C3161, Hamamatsu Photonics) and recorded using the MacLab data acquisition and analysis system. […]
A short description of series [2]: Fluorescent angiography after tail vein injection. The settings on record: injected into tail vein, at least 20 minutes prior to imaging.
Description: The tail of the animal was warmed on a heating pad to dilate the blood vessels, and approximately 0.05 ml fluorescein (25 mg/ml) in sterile PBS was injected into a tail vein of the mouse at least 20 minutes prior to imaging.
Series [3] has as its target amyloid plaques (Homo sapiens, UniProt P05067). As to the kind of experiment: In vivo multiphoton imaging of thioflavine S-positive amyloid. More on the design: species or system Tg2576 mouse. The settings on record: dilute solution applied to brain, 750 nm 2-photon excitation.

Chain of amyloid plaques (P05067 672-711 limits assumed): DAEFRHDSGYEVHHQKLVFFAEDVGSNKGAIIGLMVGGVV

`CC(=O)OCC[N+](C)(C)C` [ACh, Acetylcholine]: the “vessel dilation relative to control (non-transgenic) animals” value in series [1] is “about 25%”.

With `O=C1OC2(c3ccc(O)cc3Oc3cc(O)ccc32)c2ccccc21` [fluorescein], the “crossing of the blood-brain barrier” value in series [2] is listed as “did not cross the blood-brain barrier”.

Consider Thioflavine S, for which the “depth to the surface of the cortex at which plaques were visualized” value in series [3] was “up to 150 μm”.
